Measured values: article PMC10054758, “A Structural-Reporter Group to Determine the Core Conformation of Sialyl Lewis^x Mimetics” (Molecules, 2023)
Where two headings read alike, the source gives them in different places.

Tests used:
[1] = target: T1, E-selectin (Homo sapiens, UniProt P16581); assay: Microscale thermophoresis (MST) affinity measurement; assay type: binding; conditions: for Kd: MST, 25 °C, labeled E-selectinSCR2
T1 construct: mixed 1:1 with a solution of 0.2 μM labeled E-SelectinSCR2; made in house
T1 sequence (P16581 22-301 limits assumed): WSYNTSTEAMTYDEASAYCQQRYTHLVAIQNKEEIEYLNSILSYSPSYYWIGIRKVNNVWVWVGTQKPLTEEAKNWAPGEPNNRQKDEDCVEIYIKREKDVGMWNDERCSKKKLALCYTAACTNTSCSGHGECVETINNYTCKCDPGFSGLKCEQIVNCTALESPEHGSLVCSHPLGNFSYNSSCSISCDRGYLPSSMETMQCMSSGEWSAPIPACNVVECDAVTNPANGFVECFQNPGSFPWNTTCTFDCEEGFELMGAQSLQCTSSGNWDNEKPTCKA
Description: E-selectin production (cloning, transfection, expression, and purification) and labeling were previously described for the E-selectinSCR6-IgGFc construct and for the E-selectinSCR2 construct.
E-selectinLEC2 was labeled using the amine reactive protein labeling kit BLUE-NHS as described in the Supporting Information. Buffer exchange and labeling were performed according to the manufacturer’s protocol. […] The labeled protein was dialyzed over night against assay buffer (10 mM HEPES pH 7.4, 150 mM NaCl, 1 mM CaCl2) using Slide-A-Lyzer dialysis cassettes (10 kDa MWCO). Protein concentration was determined by HPLC-UV against a BSA standard.
Microscale thermophoresis (MST) experiments were carried out at 25 °C with 100% LED power, 50% laser power, a laser on time of 30 s, and a laser off time of 5 sec using standard treated capillaries. Ligands were dissolved in assay buffer supplemented with 0.05% v/v Tween20 and titrated 1:1 for a total of 16 dilution steps. The dilution series of ligand was mixed 1:1 with a solution of 0.2 μM labeled E-SelectinSCR2 and incubated for 10 min at room temperature before measurement. Datapoints were normalized using the bound and unbound borders achieved by NanoTemper Analysis 1.2.205 software (NanoTemper Technologies GmbH, Munich, Germany) and analyzed/illustrated with GraphPad Prism 5.0 (GraphPad Software, La Jolla, CA, USA). The measurements were globally fitted using Equation (1) for single site binding. (1) PL=(CP+CL+KD) - (CP+CL+KD) - 4CPCL/2CP where [PL] is the protein–ligand complex concentration and KD is the dissociation constant. CP represents the total concentration of protein and CL the total concentration of ligand.

[2] = target: T1, E-selectin; assay: E-selectin affinity, literature data; assay type: binding; conditions: for ΔG (Gibbs Free Energy): calculated ΔG = -RT lnKD from literature KD
[3] = target: T1, E-selectin; conditions: literature data; cited from earlier work
[4] = target: T1, E-selectin; parameters: method as in PMID 22782926; conditions: binding to E-selectin; cited from earlier work

SMILES	Kd [1] [µM]	other results
C[C@@H]1O[C@@H](O[C@H]2[C@H](O[C@@H]3O[C@H](CO)[C@H](O)[C@H](O[C@@H](CC4CCCCC4)C(=O)O)[C@H]3O)CCC[C@@H]2C(C)(C)C)[C@@H](O)[C@H](O)[C@@H]1O [2h]	51	
C[C@@H]1O[C@@H](O[C@@H]2[C@@H](CCCc3ccccc3)CCC[C@H]2O[C@@H]2O[C@H](CO)[C@H](O)[C@H](O[C@@H](CC3CCCCC3)C(=O)O)[C@H]2O)[C@@H](O)[C@H](O)[C@@H]1O [2k]	28	
CC(C)C[C@H]1CCC[C@@H](O[C@@H]2O[C@H](CO)[C@H](O)[C@H](O[C@@H](CC3CCCCC3)C(=O)O)[C@H]2O)[C@@H]1O[C@@H]1O[C@@H](C)[C@@H](O)[C@@H](O)[C@@H]1O [2m]	6	
COCCOC[C@H]1CCC[C@@H](O[C@@H]2O[C@H](CO)[C@H](O)[C@H](O[C@@H](CC3CCCCC3)C(=O)O)[C@H]2O)[C@@H]1O[C@@H]1O[C@@H](C)[C@@H](O)[C@@H](O)[C@@H]1O [2l]	31	
C[C@@H]1O[C@@H](O[C@@H]2[C@@H](c3ccccc3)CCC[C@H]2O[C@@H]2O[C@H](CO)[C@H](O)[C@H](O[C@@H](CC3CCCCC3)C(=O)O)[C@H]2O)[C@@H](O)[C@H](O)[C@@H]1O [2g]	8.8	
C[C@@H]1O[C@@H](O[C@@H]2[C@@H](Cc3ccccc3)CCC[C@H]2O[C@@H]2O[C@H](CO)[C@H](O)[C@H](O[C@@H](CC3CCCCC3)C(=O)O)[C@H]2O)[C@@H](O)[C@H](O)[C@@H]1O [2e]	18	
C[C@@H]1O[C@@H](OCCO[C@@H]2O[C@H](CO)[C@H](O)[C@H](O[C@@H](CC3CCCCC3)C(=O)O)[C@H]2O)[C@@H](O)[C@H](O)[C@@H]1O [compound 21, reference compound]		ΔG (Gibbs Free Energy) [2]: -3.148 kcal/mol; Kd [3]: 4920 µM
CCCCCC[C@H]1CCC[C@@H](O[C@@H]2O[C@H](CO)[C@H](O)[C@H](O[C@@H](CC3CCCCC3)C(=O)O)[C@H]2O)[C@@H]1O[C@@H]1O[C@@H](C)[C@@H](O)[C@@H](O)[C@@H]1O [2j]	4.3	ΔG (Gibbs Free Energy) ([1]; calculated ΔG = -RT lnKD from MST KD): -7.321 kcal/mol; ΔΔG ([1]; relative to 2a (ΔΔG2a→2b, ΔΔG2a→2j)): 1.57 kcal/mol
C[C@@H]1O[C@@H](O[C@@H]2[C@@H](CC(F)(F)F)CCC[C@H]2O[C@@H]2O[C@H](CO)[C@H](O)[C@H](O[C@@H](CC3CCCCC3)C(=O)O)[C@H]2O)[C@@H](O)[C@H](O)[C@@H]1O [2n]	9.5	
C[C@@H]1O[C@@H](O[C@@H]2[C@@H](CC3CCCCC3)CCC[C@H]2O[C@@H]2O[C@H](CO)[C@H](O)[C@H](O[C@@H](CC3CCCCC3)C(=O)O)[C@H]2O)[C@@H](O)[C@H](O)[C@@H]1O [2f]	14	
C[C@@H]1O[C@@H](O[C@@H]2CCCC[C@H]2O[C@@H]2O[C@H](CO)[C@H](O)[C@H](O[C@@H](CC3CCCCC3)C(=O)O)[C@H]2O)[C@@H](O)[C@H](O)[C@@H]1O [2a]		improvement of affinity ([2]; GlcNAc replaced by (R,R)-cyclohexane-1,2-diol (22→2a)): five-fold; ΔG (Gibbs Free Energy) [2]: -5.75 kcal/mol; improvement of affinity ([2]; compared to 21): 80 fold; ΔΔG ([2]; relative to 21 (ΔΔG21→2a)): 2.603 kcal/mol
CC(C)[C@H]1CCC[C@@H](O[C@@H]2O[C@H](CO)[C@H](O)[C@H](O[C@@H](CC3CCCCC3)C(=O)O)[C@H]2O)[C@@H]1O[C@@H]1O[C@@H](C)[C@@H](O)[C@@H](O)[C@@H]1O [2d]	6.8	
CCCC[C@H]1CCC[C@@H](O[C@@H]2O[C@H](CO)[C@H](O)[C@H](O[C@@H](CC3CCCCC3)C(=O)O)[C@H]2O)[C@@H]1O[C@@H]1O[C@@H](C)[C@@H](O)[C@@H](O)[C@@H]1O [2i]	5.4	
COC1OC(CO)C(OC2OC(CO)C(O)C(OC3(C(=O)O)CC(O)C(NC(C)=O)C(C(O)C(O)CO)O3)C2O)C(OC2OC(C)C(O)C(O)C2O)C1NC(C)=O (stereo not shown) [sLe^x (1), sialyl Lewis^x]		Kd [3]: 877 µM; entropy term −TΔS° [4]: 5.4 kcal/mol
CO[C@@H]1O[C@H](CO)[C@@H](O[C@@H]2O[C@H](CO)[C@H](O)[C@H](O[C@@H](CC3CCCCC3)C(=O)O)[C@H]2O)[C@H](O[C@@H]2O[C@@H](C)[C@@H](O)[C@@H](O)[C@@H]2O)[C@H]1NC(C)=O [compound 22]		Kd [3]: 280 µM
